Experimental data published in article PMC7600679, “Benzoxazole-Based Metal Complexes to Reverse Multidrug Resistance in Bacteria” (Antibiotics, 2020).
Read-outs that look alike come from different tables or passages of the source.

Experiments:
[1] = tested on: E. coli AG100 A; experiment: Minimum inhibitory concentration (broth microdilution, CLSI); type: cell-based, Escherichia coli; details: E. coli AG100 A (AcrAB-TolC deleted); 18 h, visual inspection
Procedure: Wild-type E. coli K-12 AG100 strain (argE3 thi-1 rpsL xyl mtl Δ(gal-uvrB) supE44) expressing the AcrAB TolC EP at its basal level and its AcrAB-TolC deleted mutant E. coli K-12 AG100 A strain. The strains were donated by Prof. Dr. Hiroshi Nikaido (Department of Molecular and Cell Biology and Chemistry, University of California, Berkeley, CA, USA).
(§1) The minimum inhibitory concentrations (MICs) of compounds were determined in 96-well plates based on the Clinical and Laboratory Standard Institute guidelines (CLSI guidelines). The compounds were diluted in 100 μL of MHB. Then, 10^−4 dilution of an overnight bacterial culture in 100 μL of medium were added to each well, with the exception of the medium control wells.

[2] = tested on: Chromobacterium violaceum 026; experiment: as above; type: cell-based; details: C. violaceum 026
Procedure: (§2) The following bacterial strains were applied in the QS tests: C. violaceum 026 as sensor strain and E. cloacae 31298 isolated from clinical wound (used as N-acyl-homoserine lactone (AHL) producer); this strain induced pigment production by C. violaceum and is a model strain to study QS interactions.
as §1

[3] = tested on: Enterobacter cloacae 31298; experiment: as above; type: cell-based; details: E. cloacae 31298
Procedure: as §2, §1

[4] = tested on: E. coli AG100; experiment: as above; type: cell-based, Escherichia coli; details: E. coli AG100; 18 h, visual inspection; read-out: MIC
Procedure: The strains were donated by Prof. Dr. Hiroshi Nikaido (Department of Molecular and Cell Biology and Chemistry, University of California, Berkeley, CA, USA).
as §1

[5] = tested on: Staphylococcus aureus ATCC 25923; experiment: as above; type: cell-based; details: S. aureus ATCC 25923; 18 h, visual inspection
Procedure: (§3) The compounds were further investigated against two Gram-positive strains, S. aureus ATCC 25923 (MSSA), used as the methicillin susceptible reference strain, and the methicillin- and ofloxacin-resistant S. aureus 272123 clinical isolate (MRSA), which was given by Prof. Dr. Leonard Amaral (Institute of Hygiene and Tropical Medicine, Lisbon, Portugal).
as §1

[6] = tested on: MRC-5 human embryonal lung fibroblast cell line; experiment: Cytotoxicity assay (MTT); type: cell-based; details: 24 h
Procedure: The MRC-5 human embryonic lung fibroblast cell line (ATCC CCL-171; provider: LGC Promochem, Teddington, UK) was used in the experiments. The cells were cultivated in Eagle’s Minimal Essential Medium (EMEM; Sigma–Aldrich, St. Louis, MO, USA), supplemented with 1% non-essential amino acid mixture, 10% heat-inactivated fetal bovine serum, 2 mM L-glutamine, 1 mM Na-pyruvate, nystatin, and a penicillin–streptomycin mixture in concentrations of 100 U/L and 10 mg/L, respectively. The supplementary components were obtained from Sigma–Aldrich, St. Louis, MO, USA. The cell culture was kept in a humidified atmosphere (5% CO2, 95% air) at 37 °C.
The activity of increasing concentrations of the compounds on cell growth was determined in 96-well flat-bottomed microtiter plates by two-fold serial dilutions of the benzoxazole derivatives. The adherent human embryonic lung fibroblast cells (10^4/well) was seeded in EMEM medium in 96-well microtiter plates for 4 h prior to the assay. The serial dilutions of the compounds were made in a separate plate, and then pipetted to the plates containing the MRC-5 cell line. Culture plates were incubated at 37 °C for 24 h; at the end of the incubation period, 20 μL of MTT (3-(4,5-dimethylthiazol-2-yl)-2,5-diphenyltetrazolium bromide) solution (from a 5 mg/mL stock solution) was measured to each well. After the incubation at 37 °C for 4 h, 100 μL of sodium dodecyl sulfate (SDS) solution (10% SDS in 0.01 M HCl) was added to each well to dissolve the formazan crystals and the samples were further incubated at 37 °C overnight. Cell growth was calculated by measuring the OD at 540 nm (ref. 630 nm) with a Multiscan EX ELISA reader. The cytotoxicity was expressed as IC50 values, defined as the inhibitory dose that reduces the growth of the cells exposed to the tested compounds by 50%.

[7] = tested on: C. violaceum 026 sensor strain with AHL producer E. cloacae 31298; experiment: Quorum sensing inhibition (agar diffusion, violacein production); type: cell-based, Chromobacterium violaceum; details: disc with 10 μL of 1 mM stock; reduction of violacein zone
Procedure: as §2
LB* was applied for these experiments. The sensor strain C. violaceum 026 and the AHL producer strains E. cloacae 31298 were inoculated as parallel lines and incubated at room temperature for 24–48 h. The inhibition of bacterial communication was determined by the agar diffusion method. Filter paper discs (7.0 mm in diameter) were impregnated with 10 μL of stock solutions (1 mM) of the compounds in DMSO. The discs were placed between the parallel lines of the sensor and the AHL producer strains. The plates were kept at room temperature for another 24–48 h, and the interactions between the strains and compounds were determined as the reduction in the size of the zone of purple pigment (violacein) production in millimeters. PMZ was applied as a positive control.

[8] = tested on: E. coli AG100; experiment: Real-time ethidium bromide accumulation (efflux pump inhibition, AcrAB-TolC); type: cell-based, Escherichia coli; details: compounds at ¼ MIC, EB 1 μg/mL, minute 30
Procedure: (§4) Since multidrug resistance EPs are very important factors contributing to multidrug resistance (MDR) in both Gram-positive and Gram-negative bacteria, the inhibition of these pumps could reverse the resistant phenotype and restore the activity of antibiotics. The effect of compounds on ethidium bromide (EB) accumulation was determined by the automated EB method. This assay was used to determine how much of the fluorescent dye and pump substrate EB was accumulated by the bacterial cells in the presence of the tested compounds. The real-time accumulation of EB was monitored for 30 min in both S. aureus and E. coli strains.
(§5) The accumulation of the efflux pump substrate EB was monitored by the automated EB method using a LightCycler real-time thermocycler (LightCycler 1.5, Roche, Indianapolis, IN, USA). An aliquot of an overnight culture of the S. aureus strains in TSB medium was inoculated into fresh TSB medium, and it was incubated until it reached an optical density (OD) of 0.6 at 600 nm. In the case of E. coli strains, the medium applied in the assay was LB broth; the preparation of the inoculum was similar to the one of S. aureus. The cells were washed with phosphate buffered saline (PBS; pH 7.4) and centrifuged at 13,000 × g for 3 min, the pellets were re-suspended in PBS (pH 7.4), and the OD was calibrated to 0.6 at 600 nm. The compounds were measured at ¼ MIC concentration (in double-concentrated form) to the EB solution in PBS. The final concentration of EB was determined according to the MIC and the fluorescent signal produced by this amount of EB. In the case of all strains, the concentration of EB was 1 μg/mL. Then, 10 μL of the EB solution plus the compound were pipetted into standard glass capillary tubes of 20 µL maximum volume (Roche, Indianapolis, USA), and 10 μL of bacterial culture (OD of 0.6 at 600 nm) were transferred to the capillaries. The capillaries containing the samples were placed into the carousel, and the fluorescence was monitored at the FL-2 channel in every minute on a real-time basis.
(§6) Based on the data obtained, the relative fluorescence index (RFI) of the last time point (minute 30) was determined as follows:RFI = (RFtreated − RFuntreated)/RFuntreated(1) where RFtreated is the relative fluorescence (RF) at the last time point of the EB retention curve in the presence of an inhibitor, and RFuntreated is the relative fluorescence at the last time point of the EB retention curve of the untreated control having the solvent control (DMSO).

[9] = tested on: E. coli AG100 A; experiment: Real-time ethidium bromide accumulation (efflux pump inhibition); type: cell-based, Escherichia coli; details: compounds at ¼ MIC, EB 1 μg/mL, minute 30
Procedure: as §4, §5, §6

[10] = tested on: S. aureus 272123 (MRSA); experiment: Minimum inhibitory concentration (broth microdilution, CLSI); type: cell-based, Staphylococcus aureus; details: 18 h, visual inspection
Procedure: as §3, §1

[11] = tested on: S. aureus 272123 (MRSA); experiment: Real-time ethidium bromide accumulation (efflux pump inhibition); type: cell-based, Staphylococcus aureus; details: compounds at ¼ MIC (3 at 12.5 µM), VER at 25 µM, EB 1 μg/mL, minute 30
Procedure: as §4, §5, §6

[12] = tested on: S. aureus ATCC 25923; experiment: as above; type: cell-based, Staphylococcus aureus; details: compounds at ¼ MIC, EB 1 μg/mL, minute 30
Procedure: as §4, §5, §6

[13] = tested on: E. coli AG100; experiment: Resistance modulation (MIC reduction) assay with CIP and TET; type: cell-based, Escherichia coli; details: compound at ¼ MIC
Procedure: (§7) The resistance modulation effects of compounds with ciprofloxacin (CIP) and tetracycline (TET) antibiotics were evaluated by the MIC reduction method on the Gram-negative E. coli AG100, AG100 A, and the Gram-positive S. aureus ATCC and MRSA strains.
(§8) The chemosensitizing activity of benzoxazole-type ligands and their metal complexes was determined based on the MIC values of the antibiotics in the presence of sub-inhibitory concentrations of the compounds (¼ MIC) in both Gram-negative and Gram-positive strains. The MICs were determined in strains by the two-fold broth microdilution method in 96-well plates, using serial dilutions of TET and CIP. The first four rows contained two-fold dilutions of antibiotics, and combinations of the TET and CIP and tested compounds were transferred into the last four rows. The 10^−4 dilution of an overnight bacterial culture in 50 μL of MHB was then measured to each well, except for the medium control wells. The plates were kept at 37 °C for 18 h. MIC values of antibiotics and their combination with tested compounds were detected by visual inspection.

[14] = tested on: S. aureus MRSA 272123; experiment: as above; type: cell-based, Staphylococcus aureus
Procedure: as §7, §8

[15] = tested on: MDR mouse T-cell lymphoma cells; parameters: method as in PMID 30396935; details: preliminary results; cited from earlier work
[16] = tested on: MRC-5 human embryonal lung fibroblast cell line; parameters: method as in earlier work; details: cited from earlier work

SMILES	MIC [1] [µM]	MIC [2] [µM]	MIC [3] [µM]	MIC [4] [µM]	MIC [5] [µM]	Cytotoxic effect (class in words) [6]	IC50 [6] [µM]	Inhibition zone (quorum sensing) [7] [mm]	Relative fluorescence index (RFI) [8]	Relative fluorescence index (RFI) [9]	MIC [10] [µM]	Relative fluorescence index (RFI) [11]	Relative fluorescence index (RFI) [12]	Reduction of the MIC of CIP [13] [fold]	CIP MIC in combination with compounds ([13]; value is the MIC of ciprofloxacin) [µM]	Reduction of the MIC value of CIP ([14]; compound at a quarter of the MIC) [fold]	CIP MIC in combination with compounds ([14]; compound at ¼ MIC, value is the MIC of ciprofloxacin) [µM]	IC50 [15] [µM]	IC50 [16] [µM]
[O-]C(=Cc1nc2ccccc2o1)C(F)(F)F.[O-]C(=Cc1nc2ccccc2o1)C(F)(F)F.[Zn+2] [Compound 4]	25	>100	>100	25	12.5	strong (IC50: 0–30)	17.5	47	−0.10	−0.17	6.25	−0.11	−0.03	–	–	–	–	–	–
O.O.[Ni+2].[O-]C(=Cc1nc2ccccc2o1)C(F)(F)F.[O-]C(=Cc1nc2ccccc2o1)C(F)(F)F [Compound 8]	25	>100	>100	50	25	strong (IC50: 0–30)	12.2	–	0.11	−0.15	6.25	−0.01	−0.20	2	0.008	2	6.25	–	–
[Ag+].[Ag+].[O-]C(=Cc1nc2ccccc2o1)C(F)(F)F.[O-]C(=Cc1nc2ccccc2o1)C(F)(F)F [Compound 11]	50	>100	>100	25	25	–	65.9	53	0.37	0.12	12.5	−0.11	0.11	–	–	–	–	–	–
CC(CN1c2ccccc2Sc2ccccc21)N(C)C (centres unmarked) [PMZ, promethazine, reference compound]	–	–	–	–	–	–	–	16	–	–	–	–	–	–	–	–	–	–	–
N.N.[Cl][Pt][Cl] [cisplatin]	–	–	–	–	–	–	–	–	–	–	–	–	–	–	–	–	–	11.2	33.5
